Laboratory results reported in patent US12312327B2, “Crystal of 1,3,5-triazine derivative or solvate thereof and method for producing same” (Shionogi & Co., Ltd., priority 2019, dated 2025).

Assays:
[1] = Flowability test (Compressibility index and Hausner ratio); assay type: physicochemical; conditions: for Compressibility index (%): (V0−Vf)/V0×100; for Hausner ratio: V0/Vf; for V0 (mL), loose bulk volume: about 10 g sample in 50 mL measuring cylinder, no compaction; for V0 (mL), loose bulk volume / Vf (mL), final tap volume: average of three; for Vf (mL), final tap volume: about 10 g sample, tapped until volume difference <= 0.5 mL
Method: 1) About 10 g of a sample was gently put into a 50 mL measuring cylinder, and the sample amount was measured.
2) The upper surface of the powder layer was carefully leveled without compaction, and the loose bulk volume (V0) was read.
3) The measuring cylinder was mounted on a support stand of a powder tester (PT-X type, Hosokawa Micron Corporation).
4) The powder sample was tapped 10 times, 500 times, 1250 times, 2500 times and the corresponding bulk volumes (V10, V500, V1250, V2500) were read.
5) The process was ended when the volume difference was equal to or less than the minimum scale (0.5 mL), and the final bulk volume was defined as the final tap volume (Vf).
6) The steps 1) to 5) were repeated three times and measured, and the average values were adopted for calculation of the Compressibility index and the Hausner ratio.
Compressibility index=(V0−Vf)/V0×100 Hausner ratio=V0/Vf

[2] = Solid stability test (80° C. hermetically sealed, one week, HPLC Method D); assay type: physicochemical; conditions: for Residual ratio (%): sealed storage, content by HPLC; for Types of analogous substances generated: 80° C. hermetically sealed, one week
Method: Column: Cadenza CD-C18, φ 3.0×150 mm, 3 μm
Flow rate: 0.55 mL per minute
UV detection wavelength: 262 nm
Mobile phase A: 0.1% TFA aqueous solution
Mobile phase B: Acetonitrile
5 mg sample (n=4) was precisely weighed in 2 mL vial, capped, and stored at a predetermined temperature (sealed storage). Then, each sample was taken out after storage for a predetermined period, and stability (content) was evaluated.
80° C. hermetically sealed
Each vial was washed out into a 25 mL volumetric flask.
Diluting medium: acetonitrile/water=1/1

SMILES | Compressibility index (%) [1] [%] | Hausner ratio [1] | V0 (mL), loose bulk volume [1] [mL] | Vf (mL), final tap volume [1] [mL] | Peak area (%) of analogous substance, retention time 15.5 min ([2]; 80° C. 1W) [%] | Purity (%) ([2]; 80° C. 1W) | Residual ratio (%) ([2]; 80° C. 1W) | Types of analogous substances generated [2] | Peak area (%) of analogous substance, retention time 15.5 min ([2]; Initial) [%] | Purity (%) ([2]; Initial) | Peak area (%) of analogous substance, retention time 3 min ([2]; 80° C. 1W) [%] | other results
C[C@@H](Cn1c(=O)[nH]/c(=N\c2ccc(Oc3ccccn3)cc2)n(Cc2ccc(Cl)cc2)c1=O)C(=O)O [Anhydrous crystal Form I of compound represented by Formula ] | 25.4 | 1.3 | 19.0 | 14.2 | 0.16 | 99.77 | 99.79 | three types | 0.16 | 99.76 |  | Flowability compared with the other crystal forms ([1]; from Compressibility index, Table 15): better flowability as compared with the other two crystal forms; Peak area (%) of analogous substance, retention time 17.1 min ([2]; 80° C. 1W): 0.04%; Peak area (%) of analogous substance, retention time 20.6 min ([2]; 80° C. 1W): 0.03%; Peak area (%) of analogous substance, retention time 17.1 min ([2]; Initial): 0.05%; Peak area (%) of analogous substance, retention time 20.6 min ([2]; Initial): 0.03%
C[C@@H](Cn1c(=O)[nH]/c(=N\c2ccc(Oc3ccccn3)cc2)n(Cc2ccc(Cl)cc2)c1=O)C(=O)O [Dihydrate crystal of compound represented by Formula (I)] | 35.9 | 1.6 | 30.7 | 19.7 | 0.09 | 99.86 | 99.13 | two types | 0.09 | 99.91 | 0.05 | 
C[C@@H](Cn1c(=O)[nH]/c(=N\c2ccc(Oc3ccccn3)cc2)n(Cc2ccc(Cl)cc2)c1=O)C(=O)O [Ethyl acetate/hexane solvate crystal of compound represented] [reference compound] | 36.7 | 1.6 | 36.8 | 23.3 |  | 99.71 | 99.03 | five types |  | 99.71 | 0.06 | Peak area (%) of analogous substance, retention time 5.8 min ([2]; 80° C. 1W): 0.01%; Peak area (%) of analogous substance, retention time 10.5 min ([2]; 80° C. 1W): 0.14%; Peak area (%) of analogous substance, retention time 14 min ([2]; 80° C. 1W): 0.04%; Peak area (%) of analogous substance, retention time 16.9 min ([2]; 80° C. 1W): 0.03%; Peak area (%) of analogous substance, retention time 3 min ([2]; Initial): 0.06%; Peak area (%) of analogous substance, retention time 5.8 min ([2]; Initial): 0.01%; Peak area (%) of analogous substance, retention time 10.5 min ([2]; Initial): 0.15%; Peak area (%) of analogous substance, retention time 14 min ([2]; Initial): 0.04%; Peak area (%) of analogous substance, retention time 16.9 min ([2]; Initial): 0.04%
